Here are results for 34 molecules from patent US20240270741A1 (Cogent Biosciences, Inc., priority 2023, published 2024).

Structures can show the parent of a compound that is named as a salt.

Chain of FGFR2 (P21802 399-821 limits assumed): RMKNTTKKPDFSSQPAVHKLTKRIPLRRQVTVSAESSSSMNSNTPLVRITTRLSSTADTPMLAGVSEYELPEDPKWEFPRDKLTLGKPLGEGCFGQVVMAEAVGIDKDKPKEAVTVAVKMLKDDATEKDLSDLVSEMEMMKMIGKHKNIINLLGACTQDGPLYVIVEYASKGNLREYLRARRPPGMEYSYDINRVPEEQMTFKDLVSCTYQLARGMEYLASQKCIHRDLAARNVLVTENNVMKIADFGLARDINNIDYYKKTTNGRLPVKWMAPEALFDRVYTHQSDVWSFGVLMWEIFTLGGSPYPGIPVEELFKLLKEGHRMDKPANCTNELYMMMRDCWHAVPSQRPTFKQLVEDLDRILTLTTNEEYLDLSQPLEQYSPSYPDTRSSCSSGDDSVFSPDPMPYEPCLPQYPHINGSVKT

One test addresses FGFR2 (Homo sapiens, UniProt P21802). The experiment in a line: FGFR wild type enzyme assay (HTRF KinEASE-TK), FGFR2. Particulars: Enz FGFR2 (nM). Background: TR-FRET usually uses a lanthanide donor and a delayed reading to cut background.
On to `CSc1cc(-c2cnn([C@H]3CCCNC3)c2)cn2ncc(C#N)c12` [Example 50, 4-methylsulfanyl-6-[1-[(3S)-3-piperidyl]pyrazol-4-yl] pyrazolo[1,5-a]pyridine-3-carbonitrile], for which inhibition was half-maximal at 2 nM (IC50).
On the same count and under the same terms, as for `CCSc1cc(-c2cnn([C@H]3CCCNC3)c2)cn2ncc(C#N)c12` [Example 51, 4-ethylsulfanyl-6-[1-[(3S)-3-piperidyl]pyrazol-4-yl]pyrazolo[1,5-a]pyridine-3-carbonitrile], the figure is 1 nM.
As for `CC(C)Sc1cc(-c2cnn([C@H]3CCCNC3)c2)cn2ncc(C#N)c12` [Example 52, 4-isopropylsulfanyl-6-[1-[(3S)-3-piperidyl]pyrazol-4-yl]pyrazolo[1,5-a]pyridine-3-carbonitrile], the half-maximal inhibitory concentration (IC50) (commonly the concentration at which inhibition is half-maximal) came out at 2 nM.
Same read-out and setting: as for `COCCSc1cc(-c2cnn([C@H]3CCCNC3)c2)cn2ncc(C#N)c12` [Example 53, 4-(2-methoxyethylsulfanyl)-6-[1-[(3S)-3-piperidyl]pyrazol-4-yl]pyrazolo[1,5-a]pyridine-3-carbonitrile], the figure is 3 nM; as for `N#Cc1cnn2cc(-c3cnn([C@H]4CCCNC4)c3)cc(SC3CCC3)c12` [Example 54, 4-cyclobutylsulfanyl-6-[1-[(3S)-3-piperidyl]pyrazol-4-yl]pyrazolo[1,5-a]pyridine-3-carbonitrile], 1 nM; as for `N#Cc1cnn2cc(-c3cnn([C@H]4CCCNC4)c3)cc(Sc3cnccn3)c12` [Example 55, 6-[1-[(3S)-3-piperidyl]pyrazol-4-yl]-4-pyrazin-2-ylsulfanyl-pyrazolo[1,5-a]pyridine-3-carbonitrile], 13 nM.
On the same count and under the same terms, to `Cc1c(-c2cc(Sc3ccccn3)c3c(C#N)cnn3c2)cnn1[C@H]1CCCNC1` [Example 56, 6-[5-methyl-1-[(3S)-3-piperidyl]pyrazol-4-yl]-4-(2-pyridylsulfanyl)pyrazolo[1,5-a]pyridine-3-carbonitrile] belongs 6 nM.
Regarding `Cn1ncc2cc(Sc3cc(-c4cnn([C@H]5CCCNC5)c4)cn4ncc(C#N)c34)ccc21` [Example 57, 4-(1-methylindazol-5-yl)sulfanyl-6-[1-[(3S)-3-piperidyl]pyrazol-4-yl]pyrazolo[1,5-a]pyridine-3-carbonitrile], the IC50 came to 13 nM.
On the same count and under the same terms, to `N#Cc1cnn2cc(-c3cnn([C@H]4CCCNC4)c3)cc(SC3CCOC3)c12` (stereo partly drawn) [Example 58, 6-[1-[(3S)-3-piperidyl]pyrazol-4-yl]-4-tetrahydrofuran-3-ylsulfanyl-pyrazolo[1,5-a]pyridine-3-carbonitrile] belongs 4 nM; to `Cc1ccnc(Sc2cc(-c3cnn([C@H]4CCCNC4)c3)cn3ncc(C#N)c23)c1` [Example 59, 4-[(4-methyl-2-pyridyl)sulfanyl]-6-[1-[(3S)-3-piperidyl]pyrazol-4-yl]pyrazolo[1,5-a]pyridine-3-carbonitrile], 11 nM.
Still for that read-out and setting: as for `N#Cc1cnn2cc(-c3cnn(C4CCNCC4)c3)cc(Sc3ncccn3)c12` [Example 60, 6-(1-(piperidin-4-yl)-1H-pyrazol-4-yl)-4-(pyrimidin-2-ylthio)pyrazolo[1,5-a]pyridine-3-carbonitrile, HCl], the figure is 7 nM.
Still for that read-out and setting: as for `Cn1nccc1Sc1cc(-c2cnn(C3CCNCC3)c2)cn2ncc(C#N)c12` [Example 61, 4-((1-methyl-1H-pyrazol-5-yl)thio)-6-(1-(piperidin-4-yl)-1H-pyrazol-4-yl)pyrazolo[1,5-a]pyridine-3-carbonitrile, HCl], the figure is 9 nM.
`N#Cc1ccccc1Sc1cc(-c2cnn(C3CCNCC3)c2)cn2ncc(C#N)c12` [Example 62, 4-((2-cyanophenyl)thio)-6-(1-(piperidin-4-yl)-1H-pyrazol-4-yl)pyrazolo[1,5-a]pyridine-3-carbonitrile]: 0.3 nM corresponded to half-maximal inhibition (IC50).
Still for that read-out and setting: to `N#Cc1cnn2cc(-c3cnn([C@H]4CCCNC4)c3)cc(Sc3ncccc3F)c12` [Example 63, 4-[(3-fluoro-2-pyridyl)sulfanyl]-6-[1-[(3S)-3-piperidyl]pyrazol-4-yl]pyrazolo[1,5-a]pyridine-3-carbonitrile] belongs 1 nM.
On the same count and under the same terms, to `N#Cc1cnn2cc(-c3cnn([C@H]4CCCNC4)c3)cc(Sc3cc(C(F)(F)F)ccn3)c12` [Example 64, 6-[1-[(3S)-3-piperidyl]pyrazol-4-y1]-4-[[4-(trifluoromethyl)-2-pyridyl]sulfanyl]pyrazolo[1,5-a]pyridine-3-carbonitrile] belongs 61 nM.
The same measure, in the same setting: as for `Cc1cccnc1Sc1cc(-c2cnn(C3CCNCC3)c2)cn2ncc(C#N)c12` [Example 65, 4-((3-methylpyridin-2-yl)thio)-6-(1-(piperidin-4-yl)-1H-pyrazol-4-yl)pyrazolo[1,5-a]pyridine-3-carbonitrile, HCl], the figure is 4 nM; as for `Cc1cc(Sc2cc(-c3cnn(C4CCNCC4)c3)cn3ncc(C#N)c23)n(C)n1` [Example 66, 4-((1,3-dimethyl-1H-pyrazol-5-yl)thio)-6-(1-(piperidin-4-yl)-1H-pyrazol-4-yl)pyrazolo[1,5-a]pyridine-3-carbonitrile, HCl], 12 nM.
`N#Cc1cnn2cc(-c3cnn([C@H]4CCCNC4)c3)cc(Sc3ncccc3C(F)(F)F)c12` [Example 67] returned an IC50 of 4 nM.
Molecule `N#Cc1cnn2cc(-c3cnn([C@H]4CCCNC4)c3)cc(Sc3cccc(C(F)(F)F)n3)c12` [Example 68, 6-[1-[(3S)-3-piperidyl]pyrazol-4-yl]-4-[[6-(trifluoromethyl)-2-pyridyl]sulfanyl] pyrazolo[1,5-a]pyridine-3-carbonitrile] displayed a half-maximal inhibitory concentration (IC50) of 68 nM.
`N#Cc1cccc(Sc2cc(-c3cnn(C4CCNCC4)c3)cn3ncc(C#N)c23)c1` [Example 69, 4-((3-cyanophenyl)thio)-6-(1-(piperidin-4-yl)-1H-pyrazol-4-yl)pyrazolo[1,5-a]pyridine-3-carbonitrile] had a half-inhibitory concentration (IC50) of 8 nM.
Still for that read-out and setting: as for `Cc1ccc(F)c(Sc2cc(-c3cnn(C4CCNCC4)c3)cn3ncc(C#N)c23)n1` [Example 70, 4-((3-fluoro-6-methylpyridin-2-yl)thio)-6-(1-(piperidin-4-yl)-1H-pyrazol-4-yl)pyrazolo[1,5-a]pyridine-3-carbonitrile, HCl], the figure is 3 nM.
Same read-out and setting: to `Cc1ccnc(Sc2cc(-c3cnn(C4CCNCC4)c3)cn3ncc(C#N)c23)c1C` [Example 72, 4-((3,4-dimethylpyridin-2-yl)thio)-6-(1-(piperidin-4-yl)-1H-pyrazol-4-yl)pyrazolo[1,5-a]pyridine-3-carbonitrile] belongs 3 nM.
Same read-out and setting: to `N#Cc1cnn2cc(-c3cnn([C@H]4CCNC4)c3)cc(Sc3ccccn3)c12` [Example 73, (S)-4-(pyridin-2-ylthio)-6-(1-(pyrrolidin-3-yl)-1H-pyrazol-4-yl)pyrazolo[1,5-a]pyridine-3-carbonitrile, HCl] belongs 4 nM.
Molecule `N#Cc1cnn2cc(-c3cnn([C@H]4CCCNC4)c3)cc(Sc3ccccc3CO)c12` [Example 74, 4-[2-(hydroxymethyl)phenyl]sulfa-nyl-6-[1-[(3S)-3-piperidyl]pyrazol-4-yl]pyrazolo[1,5-a]pyridine-3-carbonitrile] yielded an IC50 of 6 nM.
Same read-out and setting: as for `N#Cc1cnn2cc(-c3cnn([C@H]4CCCNC4)c3)cc(Sc3cccc(C(F)F)n3)c12` [Example 75, 4-[[6-(difluoromethyl)-2-pyridyl]sulfanyl]-6-[1-[(3S)-3-piperidyl]pyrazol-4-yl]pyrazolo[1,5-a]pyridine-3-carbonitrile], the figure is 22 nM; as for `N#Cc1cnn2cc(-c3cnn([C@H]4CCCNC4)c3)cc(Sc3ccncn3)c12` [Example 76, 6-[1-[(3S)-3-piperidyl]pyrazol-4-yl]-4-pyrimidin-4-ylsulfanyl-pyrazolo[1,5-a]pyridine-3-carbonitrile], 237 nM; as for `N#Cc1cccc(Sc2cc(-c3cnn([C@H]4CCCNC4)c3)cn3ncc(C#N)c23)n1` [Example 77, 4-[(6-cyano-2-pyridyl)sulfanyl]-6-[1-[(3S)-3-piperidyl]pyrazol-4-yl]pyrazolo[1,5-a]pyridine-3-carbonitrile], 99 nM.
On the same count and under the same terms, to `Cc1cc(F)cc(Sc2cc(-c3cnn([C@H]4CCCNC4)c3)cn3ncc(C#N)c23)n1` [Example 78, 4-[(4-fluoro-6-methyl-2-pyridyl)sulfanyl]-6-[1-[(3S)-3-piperidyl]pyrazol-4-yl]pyrazolo[1,5-a]pyridine-3-carbonitrile] belongs 27 nM; to `CC(C)OC[C@@H](C)Sc1cc(-c2cnn([C@H]3CCCNC3)c2)cn2ncc(C#N)c12` [Example 79, 4-[(1R)-2-isopropoxy-1-methyl-ethyl]sulfanyl-6-[1-[(3S)-3-piperidyl]pyrazol-4-yl]pyrazolo[1,5-a]pyridine-3-carbonitrile], 2 nM.
For the molecule `Cc1ccncc1Sc1cc(-c2cnn([C@H]3CCCNC3)c2)cn2ncc(C#N)c12` [Example 80, 4-[(4-methyl-3-pyridyl)sulfanyl]-6-[1-[(3S)-3-piperidyl]pyrazol-4-yl]pyrazolo[1,5-a]pyridine-3-carbonitrile], the half-inhibitory concentration (IC50) amounted to 8 nM.
`Cc1ncccc1Sc1cc(-c2cnn([C@H]3CCCNC3)c2)cn2ncc(C#N)c12` [Example 81, 4-[(2-methyl-3-pyridyl)sulfanyl]-6-[1-[(3S)-3-piperidyl]pyrazol-4-yl]pyrazolo[1,5-a]pyridine-3-carbonitrile] returned a concentration for half-maximal inhibition (IC50) of 31 nM.
`N#Cc1cnn2cc(-c3cnn([C@H]4CCCNC4)c3)cc(Sc3cccnn3)c12` [Example 82, 6-[1-[(3S)-3-piperidyl]pyrazol-4-yl]-4-pyridazin-3-ylsulfanyl-pyrazolo[1,5-a]pyridine-3-carbonitrile] registered a concentration for half-maximal inhibition (IC50) of 32 nM.
Same read-out and setting: to `N#Cc1cnn2cc(-c3cnn([C@H]4CCCNC4)c3)cc(Sc3cncnc3)c12` [Example 83, 6-[1-[(3S)-3-piperidyl]pyrazol-4-yl]-4-pyrimidin-5-ylsulfanyl-pyrazolo[1,5-a] pyridine-3-carbonitrile] belongs 19 nM.

Still in this test, the particulars now being: Enz FGFR2 (nM), FGFR2 wild type enzyme assay.
With `Cc1c(-c2cc(Sc3ccc(F)cc3C#N)c3c(C#N)cnn3c2)cnn1C1CCC(C)(C)NC1` (stereo in doubt) [Example 529, 4-(2-cyano-4-fluoro-phenyl)sulfanyl-6-[1-[(3R)-6,6-dimethyl-3-piperidyl]-5-methyl-pyrazol-4-yl]pyrazolo[1,5-a]pyridine-3-carbonitrile], the IC50 came to 1 nM.
